# According to patent publication US20170313828A1, “IN SITU-FORMING OF DENDRIMER HYDROGELS USING MICHAEL-ADDITION REACTION” (Virginia Commonwealth University, priority 2016, published 2017):
# Test: In vitro 5-FU release kinetics
# Type: physicochemical
# Settings: from hydrogel of 1 wt % PAMAM G5-(NH2)128 and PEG diacrylate575 (FIG. 9)
# Protocol: In Vitro Drug Release Kinetics. Drug release was performed on 5-FU loaded into DH-G5-0.5% (5-FU/DH-G5-0.5%). Briefly, Free 5-FU (300 μg) in PBS or DH-G5-0.5% containing 300 μg of 5-FU was transferred to dialysis bags (MWCO=500-1000 Da) and suspended in 30 mL of PBS in 50-mL centrifuge tubes. The tubes were maintained at 37° C. At predetermined time intervals up to 24 h, 1 mL of medium outside the dialysis bag was withdrawn, and the amount of drug released into the medium was analyzed on HPLC against a standard curve of 5-FU. After each sampling, 1 mL of fresh PBS was added to maintain a constant volume and sink condition. All experiments were performed in triplicate.
compound,measurement,value
O=c1[nH]cc(F)c(=O)[nH]1 [fluorouracil],drug released in the first 3 hours,about 70%
